Results taken from paper PMC7214099 (Cell reports, 2020).

Test system: IAV PA 1–192 aa endonuclease
Format: binding

In the case of `O=C1c2c(O)c(=O)ccn2N([C@@H]2c3ccccc3SCc3c2ccc(F)c3F)[C@@H]2COCCN12` [BXA, Baloxavir acid], the “increase in thermostability of IAV endonuclease” value is reported as 28.1 °C.
